Source: patent US5597832A (Abbott Laboratories, priority 1994, dated 1997)
Structures can show the parent of a compound that is named as a salt. Where two headings read alike, the source gives them in different places.

How the values were obtained:
schizophrenia = conditions: literature, cited from earlier work; for antipsychotic effects: low doses
Parkinson's disease = conditions: alone, some patients; cited from earlier work
dopamine D-2 receptor = target: T1, dopamine D-2 receptor (Rattus norvegicus, UniProt P61169); assay: D-2 receptor competitive binding, [3H]-spiroperidol, homogenized rat caudate; conditions: read-out: D-2 Ki
T1 construct: Homogenized rat caudate was the source of the D-2 receptors; from tissue; host or cells: rat caudate homogenate

dopamine D-1 receptor = dopamine D-1 receptor (Rattus norvegicus, UniProt P18901); conditions: read-out: D-1 Ki
D-1 receptor = assay: Adenylate cyclase assay (agonist activity, cAMP); type: biochemical, goldfish retina or rat striatum
[1] = test system: striatal dopamine receptors; assay: animal or person; type: in vivo; conditions: Rattus norvegicus, sc, read-out: EC50, rotation behavior
dopamine receptors = conditions: literature; cited from earlier work
rats = conditions: literature; cited from earlier work

T1 sequence (P61169 whole entry): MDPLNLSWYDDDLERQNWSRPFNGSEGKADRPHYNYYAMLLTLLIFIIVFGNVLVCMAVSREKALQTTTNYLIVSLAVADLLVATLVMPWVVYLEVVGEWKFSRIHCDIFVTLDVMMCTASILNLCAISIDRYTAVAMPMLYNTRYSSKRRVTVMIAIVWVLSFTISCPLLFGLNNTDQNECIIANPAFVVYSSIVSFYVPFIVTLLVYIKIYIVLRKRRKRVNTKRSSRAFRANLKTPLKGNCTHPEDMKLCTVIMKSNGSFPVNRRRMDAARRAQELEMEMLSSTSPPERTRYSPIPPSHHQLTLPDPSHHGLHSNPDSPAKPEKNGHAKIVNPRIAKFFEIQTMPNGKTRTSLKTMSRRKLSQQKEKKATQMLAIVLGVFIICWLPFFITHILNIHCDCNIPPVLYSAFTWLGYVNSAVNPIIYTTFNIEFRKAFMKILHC
Chain of dopamine D-1 receptor (P18901 whole entry): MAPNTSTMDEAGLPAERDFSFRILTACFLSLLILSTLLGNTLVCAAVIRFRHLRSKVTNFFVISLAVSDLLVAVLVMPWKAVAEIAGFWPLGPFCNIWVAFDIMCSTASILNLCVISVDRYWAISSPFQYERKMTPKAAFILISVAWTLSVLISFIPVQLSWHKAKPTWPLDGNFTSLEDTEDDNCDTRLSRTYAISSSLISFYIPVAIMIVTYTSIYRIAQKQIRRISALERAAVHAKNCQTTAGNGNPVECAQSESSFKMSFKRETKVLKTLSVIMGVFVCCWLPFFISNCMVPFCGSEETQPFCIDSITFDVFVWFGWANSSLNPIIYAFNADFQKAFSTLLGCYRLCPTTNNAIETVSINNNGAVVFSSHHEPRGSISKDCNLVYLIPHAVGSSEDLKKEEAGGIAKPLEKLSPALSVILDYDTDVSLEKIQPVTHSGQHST

| Compound | Ki (dopamine D-2 receptor; rat caudate, [3H]-spiroperidol) | EC50 (D-1 receptor) | Intrinsic Activity (%) (D-1 receptor) | ED50 [1] | Ki (dopamine D-1 receptor) | also measured |
| --- | --- | --- | --- | --- | --- | --- |
| CC(C)C[C@H]1C(=O)N2CCC[C@H]2[C@]2(O)O[C@](NC(=O)[C@@H]3C=C4c5cccc6[nH]c(Br)c(c56)C[C@H]4N(C)C3)(C(C)C)C(=O)N12 [bromocriptine] | – | – | – | – | – | antipsychotic effects (schizophrenia): produce antipsychotic effects; relief of Parkinson's disease symptoms (Parkinson's disease): relieve Parkinson's disease symptoms in some patients |
| Oc1cc2c(cc1O)C1c3cc(C45CC6CC(CC(C6)C4)C5)sc3CNC1CC2 (stereo not shown) [Example 47, 2-(Adamantyl)-4,5,5a,6,7,11b-hexahydro-3-thia-5-aza-cyclopent-1-ena[c]phenanthrene-9,10-diol hydrobromide] | > 5000 nM | – | – | – | – | Ki (dopamine D-1 receptor; rat caudate, [125I]SCH-23982): > 10000 nM |
| CCc1cc2c(o1)CN[C@@H]1CCc3cc(O)c(O)cc3[C@@H]21 (relative stereo) [Example 40, trans-2-Ethyl-4,5,5a,6,7,11b-hexahydro-3-oxa-5-aza-cyclopent-1-ena[c]phenanthrene-9,10-diol hydrochloride] | 480 nM | 37 nM | 70% | 0.12 µmol/kg | 15 nM | – |
| Cc1sc2c(c1C)CN[C@H]1CCc3cc(O)c(O)cc3[C@H]21 (relative stereo) [Example 21, trans-2,3-dimethyl-4,5,5a,6,7,11b-hexahydro-1-thia-5-aza-cyclopent-2-ena[c]phenanthrene-9,10-diol hydrobromide] | – | – | 95% | – | 15 nM | EC50 (D-1 receptor; goldfish retina or rat striatum homogenate): 182 nM; Ki (dopamine D-2 receptor): 66 nM |
| Oc1cc2c(cc1O)C1c3ccccc3CNC1CC2 (stereo not shown) [dihydrexidine] | – | – | – | – | – | dopamine agonist activity (dopamine receptors): active as a dopamine agonist |
| Oc1cc2c(cc1O)C(c1ccccc1)CNCC2 (stereo not shown) [SKF 38393] | – | – | – | – | – | food intake (rats): decrease food intake by rats; effect on side-effects of haloperidol (schizophrenia; used in conjunction with haloperidol): ameliorate the undesired side-effects of the haloperidol |
| CN1CCc2cccc3c2[C@H]1Cc1ccc(O)c(O)c1-3 [apomorphine] | – | – | – | – | – | antipsychotic effects (schizophrenia): produce antipsychotic effects |
| CC(C)c1nc2c(o1)[C@@H]1c3cc(O)c(O)cc3CC[C@H]1NC2 (relative stereo) [Example 50, trans-2-isopropyl-4,5,5a,6,7,11b-hexahydro-1-oxa-3,5-diaza-cyclopent-2-ena[c]phenanthrene-9,10-diol dihydrobromide] | 365 nM | 81 nM | 108% | > 1 µmol/kg | 12 nM | – |
| Oc1ccc2c(c1O)CCC1NCc3ccccc3C21 (stereo not shown) | – | – | – | – | – | dopamine agonist activity (dopamine receptors): inactive at dopamine receptors |
| Cc1nc2c(o1)[C@@H]1c3cc(O)c(O)cc3CC[C@H]1NC2 (relative stereo) [Example 51, trans-2-Methyl-4,5,5a,6,7,11b-hexahydro-1-oxa-3,5-diaza-cyclopent-2-ena[c]phenanthrene-9,10-diol] | 382 nM | 65 nM | 100% | 0.33 µmol/kg | 11 nM | – |
